# Assays:
# [1] = Stability evaluation of liposome formulation under storage conditions (Experimental Example 5); type: physicochemical; settings: for Alvocidib content % in liposome formulation: liposome formulation stored at 5° C.; for Change of Alvocidib content in liposome formulation: 5° C., at 6 to 7 months
# Description: For Example 1, Example 2, Example 5, Example 6, Example 7, Example 8, Comparative Example 7 and Comparative Example 9, the storage stability of liposome formulation was evaluated by the following method.
# For the liposome formulations of Example 1, Example 2, Example 5, Example 6, Example 7, Example 8, Comparative Example 7, and Comparative Example 9, the liposome outer solution was replaced with 10% sucrose solution or 10 mM tartrate buffer solution/10% sucrose solution (pH 4) using Sephadex G-25 column (PD-10, manufactured by GE Healthcare) or a dialysis cassette (Slide-A-Lyzer G2 Dialysis Cassettes 20K MWCO, manufactured by Thermo Scientific) to remove unencapsulated compound. The liposome formulation was filtered through a 0.22 μm membrane filter, and stored at 5° C. After 0 to 18 months, the Alvocidib content in the liposome formulations of Example 1, Example 2, Example 5, Example 6, Example 7, Example 8, Comparative Example 7 and Comparative Example 9 was determined by HPLC.
# The HPLC measurement conditions are as follows.
# [2] = Stability evaluation of solution formulation (Experimental Example 2); type: physicochemical; settings: for Stability / conversion to Alvocidib in solution formulation at pH 3: pH 3, 5° C.; for Stability / conversion to Alvocidib in solution formulation at pH 3 / Stability / conversion to Alvocidib in solution formulation at pH 4: up to 4 weeks; for Stability / conversion to Alvocidib in solution formulation at pH 4: pH 4, 5° C.
# Description: For Example 1, Example 2, Example 5, Example 6, Comparative Example 13 and Comparative Example 14, the attrition rate of the test compound and the conversion rate of the test compound to Alvocidib in a solution formulation were calculated by the following method.
# Example 1, Example 2, Example 5, Example 6, Comparative Example 13 and Comparative Example 14 were each added to buffer solutions adjusted to pH 3.0, 4.0 and 5.0, respectively, at a concentration of 0.1 mg/mL, and left at 5° C. After 0, 1, 2 and 4 weeks, the residual rates of the compounds of Example 1, Example 2, […], Comparative Example 13 and Comparative Example 14 and the production rate of Alvocidib were determined by HPLC.
# The buffer solutions used at each pH are as follows. • pH 3.0: 5 mM tartrate buffer solution/10% sucrose solution (pH 3.0) • pH 4.0: 5 mM tartrate buffer solution/10% sucrose solution (pH 4.0) • pH 5.0: 5 mM tartrate buffer solution/10% sucrose solution (pH 5.0)
# The measurement conditions for HPLC are as follows.
# • column: Acquity UPLC BEH C18, 1.7 um, 50×2.1 mm • column temperature: 40° C. • mobile phase: • A: water containing 0.1% trifluoroacetic acid • B: acetonitrile • A/B (min): • 80/20(0)→75/25(3)→0/100(3.5)→0/100(4)→80/20(4.01)→80/20(5) • flow rate: 0.8 mL/min • detection: ultraviolet visible detector, measurement wavelength 254 nm • injection: 3 μL
# [3] = solution formulation, pH3.0, 0 week
# [4] = solution formulation, pH3.0, 1 week
# [5] = solution formulation, pH3.0, 2 week
# [6] = solution formulation, pH3.0, 4 week
# [7] = solution formulation, pH4.0, 0 week
# [8] = solution formulation, pH4.0, 1 week
# [9] = solution formulation, pH4.0, 2 week
# [10] = solution formulation, pH4.0, 4 week
# [11] = solution formulation, pH5.0, 0 week
# [12] = solution formulation, pH5.0, 1 week
# [13] = solution formulation, pH5.0, 2 week
# [14] = solution formulation, pH5.0, 4 week
SMILES,Stability / conversion to Alvocidib in solution formulation at pH 3 [2],Stability / conversion to Alvocidib in solution formulation at pH 4 [2],"Production rate of Alvocidib [2, 3]","Production rate of Alvocidib [2, 4]","Production rate of Alvocidib [2, 5]","Production rate of Alvocidib [2, 6]","Production rate of Alvocidib [2, 7]","Production rate of Alvocidib [2, 8]","Production rate of Alvocidib [2, 9]","Production rate of Alvocidib [2, 10]","Production rate of Alvocidib [2, 11]","Production rate of Alvocidib [2, 12]","Production rate of Alvocidib [2, 13]","Production rate of Alvocidib [2, 14]","Residual rate [2, 3]","Residual rate [2, 4]","Residual rate [2, 5]","Residual rate [2, 6]","Residual rate [2, 7]","Residual rate [2, 8]",further results
"C[C@H](N)C(=O)O[C@@H]1CN(C)CC[C@@H]1c1c(O)cc(O)c2c(=O)cc(-c3ccccc3Cl)oc12 [Comparative Example 7, reference compound]",–,–,–,–,–,–,–,–,–,–,–,–,–,–,–,–,–,–,–,–,Alvocidib content % in liposome formulation ([1]; 0 month): 0.56%; Alvocidib content % in liposome formulation ([1]; 7 months): 23.2%; Change of Alvocidib content in liposome formulation [1]: significant increase
"CN1CC[C@H](c2c(O)cc(O)c3c(=O)cc(-c4ccccc4Cl)oc23)[C@H](OC(=O)[C@@H](N)CO)C1 [Comparative Example 9, reference compound]",–,–,–,–,–,–,–,–,–,–,–,–,–,–,–,–,–,–,–,–,Alvocidib content % in liposome formulation ([1]; 0 month): 1.17%; Alvocidib content % in liposome formulation ([1]; 6 months): 27.2%; Change of Alvocidib content in liposome formulation [1]: significant increase
"CCN(C[C@@H]1CCCCN1)C(=O)Oc1cc(O)c2c(=O)cc(-c3ccccc3Cl)oc2c1[C@H]1CCN(C)C[C@H]1O [Example 1, 2-(2-chlorophenyl)-5-hydroxy-8-[(3S,4R)-3-hydroxy-1-methylpiperidin-4-yl]-4-oxo-4H-1-benzopyran-7-yl ethyl{[(2S)-piperidin-2-yl]methyl}carbamate ditrifluoroacetate]",stable,stable,0.0%,0.0%,0.1%,0.1%,0.0%,0.1%,0.2%,0.4%,0.1%,1.2%,1.9%,3.2%,–,–,–,–,–,–,"Residual rate ([2]; solution formulation pH3.0, 0 week, 5° C., 0.1 mg/mL): 99.2%; Residual rate ([2]; solution formulation pH3.0, 1 week, 5° C., 0.1 mg/mL): 99.2%; Residual rate ([2]; solution formulation pH3.0, 2 weeks, 5° C., 0.1 mg/mL): 99.0%; Residual rate ([2]; solution formulation pH3.0, 4 weeks, 5° C., 0.1 mg/mL): 99.0%; Residual rate ([2]; solution formulation pH4.0, 0 week, 5° C., 0.1 mg/mL): 99.5%; Residual rate ([2]; solution formulation pH4.0, 1 week, 5° C., 0.1 mg/mL): 99.3%; Residual rate ([2]; solution formulation pH4.0, 2 weeks, 5° C., 0.1 mg/mL): 99.1%; Residual rate ([2]; solution formulation pH4.0, 4 weeks, 5° C., 0.1 mg/mL): 99.1%; Residual rate ([2]; solution formulation pH5.0, 0 week, 5° C., 0.1 mg/mL): 99.4%; Residual rate ([2]; solution formulation pH5.0, 1 week, 5° C., 0.1 mg/mL): 98.5%; Residual rate ([2]; solution formulation pH5.0, 2 weeks, 5° C., 0.1 mg/mL): 97.6%; Residual rate ([2]; solution formulation pH5.0, 4 weeks, 5° C., 0.1 mg/mL): 96.5%"
"CCN(C[C@H]1CCCCN1)C(=O)Oc1cc(O)c2c(=O)cc(-c3ccccc3Cl)oc2c1[C@H]1CCN(C)C[C@H]1O [Example 2, 2-(2-chlorophenyl)-5-hydroxy-8-[(3S,4R)-3-hydroxy-1-methylpiperidin-4-yl]-4-oxo-4H-1-benzopyran-7-yl ethyl{[(2R)-piperidin-2-yl]methyl}carbamate]",stable,stable,0.0%,0.0%,0.0%,0.1%,0.0%,0.1%,0.2%,0.3%,0.1%,1.1%,1.9%,3.1%,96.5%,96.5%,96.4%,96.5%,96.4%,96.5%,"Residual rate [2, 9]: 96.4%; Residual rate [2, 10]: 96.4%; Residual rate [2, 11]: 96.4%; Residual rate [2, 12]: 95.5%; Residual rate [2, 13]: 94.5%; Residual rate [2, 14]: 93.0%"
"CCCN(C[C@@H]1CCCCN1)C(=O)Oc1cc(O)c2c(=O)cc(-c3ccccc3Cl)oc2c1[C@H]1CCN(C)C[C@H]1O [Example 5, 2-(2-chlorophenyl)-5-hydroxy-8-[(3S,4R)-3-hydroxy-1-methylpiperidin-4-yl]-4-oxo-4H-1-benzopyran-7-yl {[(2S)-piperidin-2-yl]methyl}propylcarbamate]",stable,stable,0.2%,0.2%,0.3%,0.3%,0.2%,0.3%,0.4%,0.5%,0.4%,1.2%,2.1%,3.7%,98.2%,98.2%,98.1%,98.1%,98.2%,98.2%,"Residual rate [2, 9]: 98.1%; Residual rate [2, 10]: 98.1%; Residual rate [2, 11]: 98.1%; Residual rate [2, 12]: 97.2%; Residual rate [2, 13]: 96.6%; Residual rate [2, 14]: 95.0%"
"CCCN(C[C@H]1CCCCN1)C(=O)Oc1cc(O)c2c(=O)cc(-c3ccccc3Cl)oc2c1[C@H]1CCN(C)C[C@H]1O [Example 6, 2-(2-chlorophenyl)-5-hydroxy-8-[(3S,4R)-3-hydroxy-1-methylpiperidin-4-yl]-4-oxo-4H-1-benzopyran-7-yl {[(2R)-piperidin-2-yl]methyl}propylcarbamate]",stable,stable,0.5%,0.5%,0.6%,0.6%,0.5%,0.7%,0.8%,0.9%,0.7%,1.6%,2.6%,4.6%,98.8%,98.8%,98.8%,98.8%,98.8%,98.7%,"Residual rate [2, 9]: 98.5%; Residual rate [2, 10]: 98.2%; Residual rate [2, 11]: 98.7%; Residual rate [2, 12]: 97.0%; Residual rate [2, 13]: 95.3%; Residual rate [2, 14]: 91.8%"

# Reference: patent US12617779B2, “Self degradation-type CDK9 inhibitor prodrug and liposome encapsulating same” (Sumitomo Pharma Co., Ltd., priority 2021, dated 2026)
